Assay results from ChEMBL document CHEMBL1201862, “PubChem BioAssay data set” (2004).
Structures can show the parent of a compound that is named as a salt.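 Exposure lasted 48 hours, with cells grown in 96-well plates and compounds tested at five concentrations. At the GI50, growth is halved.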 Calls of active or inactive are those of the source. No stated cut-off is given here; in the data, active = GI50 up to about 1.1 µM and inactive = higher.

Legend:
Assay in all cases: inhibition of tumour cell growth, NCI panel, 48 h
XF498 = system: XF498
DMS-114 = system: DMS-114
HOP-18 = system: HOP-18
LXFL 529 = system: LXFL 529
KM-20L2 = system: KM-20L2
M19-MEL = system: M19-MEL
RXF 631 = system: RXF 631
T47D = system: T47D
BT-549 = system: BT-549

SMILES | GI50 (XF498) | GI50 (DMS-114) | GI50 (HOP-18) | GI50 (LXFL 529) | GI50 (KM-20L2) | GI50 (M19-MEL) | GI50 (RXF 631) | GI50 (T47D) | GI50 (BT-549)
N=C(NC(=N)Nc1ccc(S(=O)(=O)Nc2cnc3ccccc3n2)cc1)Nc1ccc(Br)cc1 | > 100 µM (inactive) | > 100 µM (inactive) | > 100 µM (inactive) | > 100 µM (inactive) | > 100 µM (inactive) | > 100 µM (inactive) | > 100 µM (inactive) |  | 
C[C@]12CCc3nonc3C1CC[C@@H]1C2CC[C@]2(C)C(=O)CCC12 (stereo not given in full) | 17.5 µM (inactive) | 22.4 µM (inactive) | > 100 µM (inactive) | 35.9 µM (inactive) | 26.5 µM (inactive) | 25.8 µM (inactive) | 57.8 µM (inactive) |  | 
CN(C)CC1CCCCCCCCCC(CN(C)C)C1=O (stereo not given) | > 100 µM (inactive) | > 100 µM (inactive) | > 100 µM (inactive) | > 100 µM (inactive) | 61.4 µM (inactive) | 63.1 µM (inactive) | > 100 µM (inactive) | 7.06 µM (inactive) | 6.21 µM (inactive)
COC(=O)C(=O)C(C(=O)C(=O)Nc1ccc([N+](=O)[O-])cc1[N+](=O)[O-])c1nc2ccc([N+](=O)[O-])cc2nc1O (stereo not given) | 76.7 µM (inactive) | > 100 µM (inactive) | 22.1 µM (inactive) | > 100 µM (inactive) | > 100 µM (inactive) | > 100 µM (inactive) | > 100 µM (inactive) |  | 
NC(CCCNc1ccc(O)cc1)C(=O)O (stereo not given) | 22.5 µM (inactive) | 24.9 µM (inactive) | > 76.4 µM (inactive) | 18.3 µM (inactive) | > 100 µM (inactive) | 18.2 µM (inactive) | 54.3 µM (inactive) |  | 
CC[C@@]1(O)C(=O)OCc2c1cc1n(c2=O)Cc2cc3c(CN(C)C)c(O)ccc3nc2-1 [TOPOTECAN HYDROCHLORIDE] | 0.0387 µM (active) | 0.0187 µM (active) | 0.254 µM (active) | 2.29 µM (inactive) | 0.146 µM (active) | 0.0649 µM (active) | 0.375 µM (active) | 0.00571 µM (active) | 
CN1CCCS/C1=C1/SC(=S)N(c2ccccc2)C1=O | > 100 µM (inactive) | > 100 µM (inactive) | > 100 µM (inactive) | > 100 µM (inactive) | > 100 µM (inactive) | > 100 µM (inactive) | > 100 µM (inactive) |  | 
COc1cccc2c1C(=O)c1c(O)c3c(c(O)c1C2=O)C[C@@](O)(C(=O)CO)CC3OC1CC(NCCCC(OC(C)=O)OC(C)=O)C(O)C(C)O1 (stereo not given in full) | 0.00183 µM (active) | 0.00703 µM (active) | 0.00413 µM (active) | 0.00262 µM (active) | 0.000912 µM (active) | 0.00261 µM (active) | < 0.0001 µM (active) |  | 
Fc1cccc(Cl)c1C1SCc2nc3ccccc3n21 (stereo not given) | 27.7 µM (inactive) | 20.7 µM (inactive) | 29.7 µM (inactive) | 35.9 µM (inactive) | 17.2 µM (inactive) | 26.1 µM (inactive) | 25.3 µM (inactive) |  | 
NC1=NC(c2ccccc2)CC(c2cc(Cl)cc(Br)c2O)=N1 (stereo not given) | 13.7 µM (inactive) | 8.69 µM (inactive) | 17.7 µM (inactive) | 16.7 µM (inactive) | 15.7 µM (inactive) | 12.8 µM (inactive) | 17.5 µM (inactive) |  | 
COc1cc(OC)c2c(O)cc(CC(C)O)cc2c1 (stereo not given) | > 100 µM (inactive) | > 100 µM (inactive) | > 100 µM (inactive) | > 100 µM (inactive) | > 100 µM (inactive) | > 100 µM (inactive) | > 100 µM (inactive) |  | 
